Values joined by “and” are separate entries in the source; they are usually repeats but may differ in a detail not shown here. Equal entries are not always repeated. Where two headings read alike, the source gives them in different places.
Biological target: T1, CRTH2 receptor (hCRTH2) (Homo sapiens, UniProt Q9Y5Y4)
T1 construct: expressed in transfected cells; host or cells: HEK cells (HEK-hCRTH2 cell line), membranes
T1 sequence (Q9Y5Y4 1-395): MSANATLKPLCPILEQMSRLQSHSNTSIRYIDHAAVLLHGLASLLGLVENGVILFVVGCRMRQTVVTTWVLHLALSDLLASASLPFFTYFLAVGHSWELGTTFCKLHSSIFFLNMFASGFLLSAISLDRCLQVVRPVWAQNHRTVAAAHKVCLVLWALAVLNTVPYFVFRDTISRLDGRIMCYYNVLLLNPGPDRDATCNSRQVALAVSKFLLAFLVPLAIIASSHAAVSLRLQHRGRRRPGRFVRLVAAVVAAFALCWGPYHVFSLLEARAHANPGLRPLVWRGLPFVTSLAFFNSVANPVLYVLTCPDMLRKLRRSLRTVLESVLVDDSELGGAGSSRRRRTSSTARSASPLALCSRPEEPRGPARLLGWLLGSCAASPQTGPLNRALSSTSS
Test: Radioligand binding assay ([3H]PGD2 competition, membranes of HEK-hCRTH2 cell line)
Details: 3.0 nM [3H]PGD2, HEK-hCRTH2 membranes, 60 min, room temperature
Method: Competing ligands were diluted in dimethylsulfoxide (Me2SO) that was kept constant at 1% (v/v) of the final incubation volume. The reaction was initiated by the addition of 8-20 μg of membrane protein prepared from a HEK-hCRTH2 cell line. Total and non-specific binding were determined in the absence and the presence of […] PGD2, respectively. […] The reaction was routinely conducted for 60 min at room temperature and terminated by rapid filtration through prewetted (0.3% polyethyleneimine) 96-well printed filtermate (Wallac) using a Tomtec harvester. After washing with cold buffer, the filter was dried for 2 minutes in microwave, and Meltilex Scintillator sheet (Wallac) was melted on for 2 min.

| SMILES | Ki (read-out: Ki) | Ki (Ki) |
| --- | --- | --- |
| C[C@@]1(c2nc3cc(F)c(F)cc3[nH]2)CC(c2ccc3c(=O)n(-c4ccc(F)cc4)c(CCCCC(=O)O)nc3c2)=NO1 [Example 207] | 10 to 50 nM and 17 nM | – |
| Cc1ccccc1-c1cc(-c2ccc3c(=O)n(-c4ccc(F)cc4)c(CCCCC(=O)O)nc3c2)no1 [Example 103] | ≤ 10 nM | – |
| CC1(c2nc3cc(Cl)ccc3o2)CC(c2ccc3c(=O)n(-c4ccc(F)cc4)c(CCCCC(=O)O)nc3c2)=NO1 (stereo not drawn) [Example 159] | ≤ 10 nM | – |
| C[C@H]1C(c2ccc3c(=O)n(-c4ccc(F)cc4)c(CCCCC(=O)O)nc3c2)=NO[C@@H]1c1ccccc1 [Example 286] | ≤ 10 nM | – |
| O=C(O)CCCCc1nc2cc(-c3cc(CNS(=O)(=O)c4ccc(-c5ccccc5)cc4)on3)ccc2c(=O)n1-c1ccc(F)cc1 [Example 24M] | 10 to 50 nM and 40.5 nM | – |
| O=C(O)CCCCc1nc2cc(C3=NOC4(CC[C@H](c5ccccc5)C4)C3)ccc2c(=O)n1-c1ccc(F)cc1 (single isomer, unassigned) [Example 139] | ≤ 10 nM | – |
| CC1(c2cn3ccccc3n2)CC(c2ccc3c(=O)n(-c4ccc(F)cc4)c(CCCCC(=O)O)nc3c2)=NO1 (stereo not drawn) [Example 171] | ≤ 10 nM | – |
| CC(c1ccccc1)C1(C)CC(c2ccc3c(=O)n(-c4ccc(F)cc4)c(CCCCC(=O)O)nc3c2)=NO1 (single isomer, unassigned) [Example 42F, 5-(3-(4-fluorophenyl)-7-(5-methyl-5-(1-phenylethyl)-4,5-dihydroisoxazol-3-yl)-4-oxo-3,4-dihydroquinazolin-2-yl)pentanoic acid] | ≤ 10 nM | – |
| O=C(O)CCCCc1nc2cc(-c3cc(COCc4ccc(F)cc4F)on3)ccc2c(=O)n1-c1ccc(F)cc1 [Example 272] | ≤ 10 nM | – |
| CCCCC1(c2ccccc2)CC(c2ccc3c(=O)n(-c4ccc(F)cc4)c(CCCCC(=O)O)nc3c2)=NO1 (stereo not drawn) [Example 255] | ≤ 10 nM | – |
| CC1(c2nc3cc(F)ccc3[nH]2)CC(c2ccc3c(=O)n(-c4ccc(Cl)cc4)c(CCCCC(=O)O)nc3c2)=NO1 (stereo not drawn) [Example 205] | ≤ 10 nM | – |
| O=C(O)CCCCc1nc2cc(-c3cc(COCc4ccccc4)on3)ccc2c(=O)n1-c1ccc(F)cc1 [Example 277] | 10 to 50 nM | – |
| O=C(O)CCCCc1nc2cc(C3=NOC(c4ccccc4)C3)ccc2c(=O)n1-c1ccc(F)cc1 (stereo not drawn) [Example 15, 5-(3-(4-fluorophenyl)-4-oxo-7-(5-phenyl-4,5-dihydroisoxazol-3-yl)-3,4-dihydroquinazolin-2-yl)pentanoic acid] | 10 to 50 nM | – |
| O=C(O)CCCCc1nc2cc(C3=NOC4(CC[C@@H](c5ccccc5)C4)C3)ccc2c(=O)n1-c1ccc(F)cc1 (single isomer, unassigned) [Example 141] | ≤ 10 nM | – |
| N#Cc1ccc(Cc2nc(-c3ccc4c(=O)n(-c5ccc(F)cc5)c(CCCCC(=O)O)nc4c3)no2)cc1 [Example 243] | 10 to 50 nM | – |
| O=C(O)CCCCc1nc2cc(-c3cc(COCc4cccc5cccnc45)on3)ccc2c(=O)n1-c1ccc(F)cc1 [Example 283] | 10 to 50 nM | – |
| O=C(O)CCCCc1nc2cc(C3=NOC(c4ccccc4)(c4ccccc4)C3)ccc2c(=O)n1-c1ccc(F)cc1 [Example 117] | – | 10 to 50 nM |
| C[C@@]1(Cc2ccc(F)cc2)CC(c2ccc3c(=O)n(-c4ccc(F)cc4)c(CCCCC(=O)O)nc3c2)=NO1 [Example 293] | 10 to 50 nM | – |
| O=C(O)CCCCc1nc2cc(-c3cc(CNC(=O)c4ccc(F)cc4)on3)ccc2c(=O)n1-c1ccc(F)cc1 [Example 24R] | 10 to 50 nM | – |
| O=C(O)CCCCc1nc2cc(-c3cc(COCc4ccccc4F)on3)ccc2c(=O)n1-c1ccc(F)cc1 [Example 279] | ≤ 10 nM | – |
| CO[C@@H](c1ccccc1)c1cc(-c2ccc3c(=O)n(-c4ccc(F)cc4)c(C(C)CCCC(=O)O)nc3c2)no1 (stereo partly drawn) [Example 146] | 10 to 50 nM | – |
| CC1(c2ccc(F)c(F)c2)CC(c2ccc3c(=O)n(-c4ccc(F)cc4)c(CCCCC(=O)O)nc3c2)=NO1 (stereo not drawn) [Example 124] | ≤ 10 nM | – |
| C[C@@](O)(c1ccc(F)cc1)c1cc(-c2ccc3c(=O)n(-c4ccc(F)cc4)c(CCCCC(=O)O)nc3c2)no1 [Example 258] | 10 to 50 nM | – |
| C[C@@H](OCc1ccc(F)cc1)c1cc(-c2ccc3c(=O)n(-c4ccc(F)cc4)c(CCCCC(=O)O)nc3c2)no1 [Example 44] | 10 to 50 nM and 32.6 nM | – |

Reference: patent US8927559B2, “Quinazolinone-type compounds as CRTH2 antagonists” (Merck Sharp & Dohme Corp., priority 2010, dated 2015)
